Key:
[1] = tested on: H226 (KRAS wildtype cell line); assay: Proliferation Assay H226; type: cell-based; conditions: Homo sapiens, NCI-H226, n = 1
Method: (§1) The isogenic KRAS lines harboring G12D, G12C, and G12V were obtained from Horizon Discovery labs on a one year lease. These cells were cultured in McCoys media with 10% FBS to 80% confluency. Cells were then released from flasks via trypsinization and plated into 96-well plates at an initial density range of 2000 cells per well. Cells were allowed 24 hours to attach, and then the agents were added to the culture media at a range of concentrations from 0-100 μM. Cells were incubated for 72 hours with the drugs, and then viability was assessed using an MTS viability assay. Cells were exposed to MTS reagent (Promega) dissolved in PBS (Hyclone) at a concentration of 200 μL reagent/mL media for 2 hours. Absorbance was then read at 490 nm, and viability was expressed as a percentage normalized between the negative control (no cells plated) and the condition of cells with no drug added (100% viability) normalized as the upper limit of viability.
(§2) Our panel of 30 cell lines and an extensive characterization were obtained from Dr. John Minna (UTSW). All cell lines were cultured in RPMI 1640 with 10% FBS. Cells were treated with concentrations of agents at concentrations 0.01 to 50 μM and evaluated as described above. IC50's were determined using Excelfit.

[2] = tested on: H1975 (KRAS wildtype cell line); assay: Proliferation Assay H1975; type: cell-based; conditions: Homo sapiens, NCI-H1975, n = 1
Method: as §1, §2

CNK1 PH-domain (CNKSR1) = biological target: T1, CNK1 PH-domain (CNKSR1) (Homo sapiens, UniProt Q969H4); assay: SPR binding assay (Biacore T100), CNK1 PH-domain
T1 construct: The PH-domain His-fusion proteins (CNK1 and AKT1) were expressed and immobilized on a NTA chip; made in house
T1 sequence (Q969H4 403-502 limits assumed): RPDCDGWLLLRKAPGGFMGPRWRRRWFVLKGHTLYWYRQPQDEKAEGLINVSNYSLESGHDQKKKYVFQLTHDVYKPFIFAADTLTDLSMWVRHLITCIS
Method: All interaction analyses were done with a Biacore T100 Control Software v3.2, and BIAevaluation v4.1 analysis software (Biacore). The PH-domain His-fusion proteins (CNK1 and AKT1) were expressed and immobilized on a NTA chip to a level of 10,000 response units or less. Small molecule analytes at concentrations ranging from 50 μM to 0.010 μM were injected at a high flow rate (30 μL/min) DMSO concentrations in all samples and running buffer were 1-5% (v/v).
Other docking was performed using modeling algorithms with state-of-the-art commercial drug discovery software (Schrodinger suite). […] Additionally, ligand-based approaches provided an alternative to structure based drug discovery. Ligand-based virtual screening methodologies can take into account shape and electrostatics (like ROCS) and the pharmacophoric features (acceptor, donor, hydrophobic, aromatic, etc.) of its functional groups. […] SPR interaction analyses of all other compounds was undertaken using a Biacore T100 with Control and Evaluation software kit.

[3] = tested on: H1373 (KRAS mutant cell line); assay: Proliferation Assay H1373; type: cell-based; conditions: Homo sapiens, NCI-H1373, N = 2 experiments
Method: as §1, §2

[4] = tested on: A549 (KRAS mutant cell line); assay: Proliferation Assay A549; type: cell-based; conditions: Homo sapiens, N = 2 experiments
Method: as §1, §2

In the case of `O=C(O)CCc1cc(NS(=O)(=O)c2cccs2)c2c(c1O)OCO2` [Compound 90, 3-(4-hydroxy-7-(thiophene-2-sulfonamido)benzo[d][1,3]dioxol-5-yl)propanoic acid], the IC50 [1] is reported as over 100 µM, the IC50 [2] is reported as over 100 µM and the “Surface Plasmon Resonance CNKSR1 binding (RU max)” value (CNK1 PH-domain (CNKSR1); date 12 09 13) is reported as −7.809 RU * 100/Da. The “Surface Plasmon Resonance CNKSR1 stability (RU max post-injection)” value (CNK1 PH-domain (CNKSR1); date 12 09 13) was −3.766 RU * 100/Da, the IC50 [3] was over 100 µM and the IC50 [4] was over 100 µM.
For `CN1CC(=O)N(/C=C/c2cc(NS(=O)(=O)c3cccs3)c3c(c2O)OCO3)C1=O` [Compound 91], the IC50 [1] was over 100 µM, the IC50 [2] was over 100 µM and the “Surface Plasmon Resonance CNKSR1 binding (RU max)” value (CNK1 PH-domain (CNKSR1); date 11 26 13) was −1.867 RU * 100/Da. The “Surface Plasmon Resonance CNKSR1 stability (RU max post-injection)” value (CNK1 PH-domain (CNKSR1); date 11 26 13) was 0.288 RU * 100/Da, the IC50 [3] was over 100 µM and the IC50 [4] was over 100 µM.
For `O=C1COC(=O)N1/C=C/c1cc(NS(=O)(=O)c2cccs2)c2c(c1O)OCO2` [Compound 100], the IC50 [1] was over 100 µM, the IC50 [2] was over 100 µM and the “Surface Plasmon Resonance CNKSR1 binding (RU max)” value (CNK1 PH-domain (CNKSR1); date 11 26 13) was −1.240 RU * 100/Da. The “Surface Plasmon Resonance CNKSR1 stability (RU max post-injection)” value (CNK1 PH-domain (CNKSR1); date 11 26 13) was −0.026 RU * 100/Da, the IC50 [3] was over 100 µM and the IC50 [4] was over 100 µM.
With `Cc1ccc(-c2csc(Cn3nc(C4OC5CCOC54)c4ccccc4c3=O)n2)cc1` (stereo not shown) [Compound 124] the IC50 [1] was 95 µM, the IC50 [2] was over 100 µM and the “Surface Plasmon Resonance CNKSR1 binding (RU max)” value (CNK1 PH-domain (CNKSR1); date 12 09 13) was −0.369 RU * 100/Da. The “Surface Plasmon Resonance CNKSR1 stability (RU max post-injection)” value (CNK1 PH-domain (CNKSR1); date 12 09 13) was −0.053 RU * 100/Da, the IC50 [3] was 50 µM and the IC50 [4] was 50 µM.
`Cc1ccc(-c2csc(Cn3nc(CC(O)C[N+](=O)[O-])c4ccccc4c3=O)n2)cc1` (stereo not shown) [Compound 125] was tested, and the IC50 [1] was 65 µM, the IC50 [2] was 40 µM and the “Surface Plasmon Resonance CNKSR1 binding (RU max)” value (CNK1 PH-domain (CNKSR1); date 12 09 13) was −0.380 RU * 100/Da. For the same molecule, the “Surface Plasmon Resonance CNKSR1 stability (RU max post-injection)” value (CNK1 PH-domain (CNKSR1); date 12 09 13) was −0.127 RU * 100/Da, the IC50 [3] was 60 µM and the IC50 [4] was 38 µM.
With `Cc1ccc(-c2csc(Cn3nc(CC(O)CN)c4ccccc4c3=O)n2)cc1` (stereo not shown) [Compound 126] the IC50 [1] was 19 µM, the IC50 [2] was 27 µM and the “Surface Plasmon Resonance CNKSR1 binding (RU max)” value (CNK1 PH-domain (CNKSR1); date 12 09 13) was −0.166 RU * 100/Da. The “Surface Plasmon Resonance CNKSR1 stability (RU max post-injection)” value (CNK1 PH-domain (CNKSR1); date 12 09 13) was −0.031 RU * 100/Da, the IC50 [3] was 16 µM and the IC50 [4] was 27 µM.
For `Cc1ccc(-c2csc(Cn3nc(CC(=O)NS(C)(=O)=O)c4ccccc4c3=O)n2)cc1` [Compound 127], the IC50 [1] was over 100 µM, the IC50 [2] was over 100 µM and the “Surface Plasmon Resonance CNKSR1 binding (RU max)” value (CNK1 PH-domain (CNKSR1); date 12 09 13) was 3.050 RU * 100/Da. For the same molecule, the “Surface Plasmon Resonance CNKSR1 stability (RU max post-injection)” value (CNK1 PH-domain (CNKSR1); date 12 09 13) was 2.868 RU * 100/Da, the IC50 [3] was over 100 µM and the IC50 [4] was over 100 µM.
`CN1CC(=O)N(/C=C/c2cc(N(S(=O)(=O)c3cccs3)S(=O)(=O)c3cccs3)c3c(c2O)OCO3)C1=O` [Compound 128] was tested, and the IC50 [1] was over 100 µM, the IC50 [2] was over 100 µM and the “Surface Plasmon Resonance CNKSR1 binding (RU max)” value (CNK1 PH-domain (CNKSR1); date 11 26 13) was 1.409 RU * 100/Da. For the same molecule, the “Surface Plasmon Resonance CNKSR1 stability (RU max post-injection)” value (CNK1 PH-domain (CNKSR1); date 11 26 13) was 0.456 RU * 100/Da, the “Surface Plasmon Resonance CNKSR1 binding (RU max)” value (CNK1 PH-domain (CNKSR1); date 12 09 13) was −0.541 RU * 100/Da and the “Surface Plasmon Resonance CNKSR1 stability (RU max post-injection)” value (CNK1 PH-domain (CNKSR1); date 12 09 13) was −0.304 RU * 100/Da. It also gave an IC50 [3] of over 100 µM and an IC50 [4] of over 100 µM.
In the case of `CCOC(=O)/C=C/c1cc(NS(=O)(=O)c2cccs2)c2c(c1OC)OCO2` [Compound 129], the “Surface Plasmon Resonance CNKSR1 binding (RU max)” value (CNK1 PH-domain (CNKSR1); date 11 26 13) is reported as −0.133 RU * 100/Da and the “Surface Plasmon Resonance CNKSR1 stability (RU max post-injection)” value (CNK1 PH-domain (CNKSR1); date 11 26 13) is reported as −0.041 RU * 100/Da.
With `COc1cc(NS(=O)(=O)c2cccs2)c(SC)c(/C=C/N2C(=O)CN(C)C2=O)c1O` [Compound 132] the IC50 [1] was 60 µM, the IC50 [2] was over 100 µM and the “Surface Plasmon Resonance CNKSR1 binding (RU max)” value (CNK1 PH-domain (CNKSR1); date 11 26 13) was 0.457 RU * 100/Da. For the same molecule, the “Surface Plasmon Resonance CNKSR1 stability (RU max post-injection)” value (CNK1 PH-domain (CNKSR1); date 11 26 13) was 0.906 RU * 100/Da, the IC50 [3] was 60 µM and the IC50 [4] was 72 µM.
In the case of `COc1cc(NS(=O)(=O)c2cccs2)c(SC)c(/C=C/N2C(=O)COC2=O)c1O` [Compound 133], the IC50 [1] is reported as 95 µM, the IC50 [2] is reported as over 100 µM and the “Surface Plasmon Resonance CNKSR1 binding (RU max)” value (CNK1 PH-domain (CNKSR1); date 11 26 13) is reported as −1.537 RU * 100/Da. For the same molecule, the “Surface Plasmon Resonance CNKSR1 stability (RU max post-injection)” value (CNK1 PH-domain (CNKSR1); date 11 26 13) was −0.123 RU * 100/Da, the IC50 [3] was over 100 µM and the IC50 [4] was over 100 µM.

— US9340532B2, “Methods and compositions for inhibiting CNKSR1” (PHUSIS THERAPEUTICS, INC., priority 2012, dated 2016)
